Experimental findings from publication PMC5394417, “Investigating the molecular mechanism of positive and negative allosteric modulators in the calcium-sensing receptor dimer” (Scientific Reports, 2017) are described below.

The assay deals with T1, HA-S147A CaSR mutant (Rattus norvegicus, UniProt P48442, S147A).
T1 construct: mGluR5 signal peptide (N); expressed in transfected cells; host or cells: HEK293T
T1 sequence (P48442 20-1079 S147A): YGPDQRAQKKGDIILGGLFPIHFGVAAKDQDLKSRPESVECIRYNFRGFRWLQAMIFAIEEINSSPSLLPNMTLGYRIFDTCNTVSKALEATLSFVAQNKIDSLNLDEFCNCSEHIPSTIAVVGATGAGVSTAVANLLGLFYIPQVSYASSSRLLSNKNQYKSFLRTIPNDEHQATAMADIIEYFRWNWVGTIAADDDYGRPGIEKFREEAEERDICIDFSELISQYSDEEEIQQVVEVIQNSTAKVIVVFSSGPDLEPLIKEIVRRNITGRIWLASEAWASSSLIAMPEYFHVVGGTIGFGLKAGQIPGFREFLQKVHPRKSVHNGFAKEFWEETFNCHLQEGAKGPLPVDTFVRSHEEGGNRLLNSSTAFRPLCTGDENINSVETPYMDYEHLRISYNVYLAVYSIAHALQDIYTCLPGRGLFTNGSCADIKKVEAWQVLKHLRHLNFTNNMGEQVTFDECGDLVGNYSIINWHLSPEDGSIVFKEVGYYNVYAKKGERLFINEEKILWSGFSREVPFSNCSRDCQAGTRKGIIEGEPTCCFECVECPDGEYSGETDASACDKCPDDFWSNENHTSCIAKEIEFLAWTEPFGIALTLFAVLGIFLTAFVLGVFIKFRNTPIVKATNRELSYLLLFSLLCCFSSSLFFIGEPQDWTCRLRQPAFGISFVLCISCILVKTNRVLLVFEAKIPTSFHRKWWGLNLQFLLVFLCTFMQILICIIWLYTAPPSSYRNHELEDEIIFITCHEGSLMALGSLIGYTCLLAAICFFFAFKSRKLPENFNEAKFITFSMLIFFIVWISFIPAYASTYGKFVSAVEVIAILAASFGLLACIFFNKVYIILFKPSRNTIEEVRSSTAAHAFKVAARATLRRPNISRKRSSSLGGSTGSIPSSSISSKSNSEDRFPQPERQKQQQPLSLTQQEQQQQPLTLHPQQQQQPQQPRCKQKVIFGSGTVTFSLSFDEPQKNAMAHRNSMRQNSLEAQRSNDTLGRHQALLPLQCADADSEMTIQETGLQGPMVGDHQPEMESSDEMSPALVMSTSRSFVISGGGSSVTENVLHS
As to the kind of experiment: IP-One assay, HEK293T transiently transfected. It counts as cell-based.

The EC50 is the concentration that produces a half-maximal response. On to `[Ca+2]` [Ca^2+], for which, for the setting “Ca^2+ alone”, the EC50 turned out to be 9.07 mM, the “Hill coefficient ± S.E.M.” value is recorded as 3.50 ± 0.26 and the “pEC50 ± S.E.M.” value is listed as 2.04 ± 0.01. Further, the “Max ± S.E.M.” value (normalized to maximum response of WT CaSR) came out at 150 ± 17%.
